The values below come from article PMC5872323, “The Plant Defensin NaD1 Enters the Cytoplasm of Candida albicans via Endocytosis” (Journal of Fungi, 2018).

The test system of experiment [1] is C. albicans DAY185. Put plainly: Flow cytometry BODIPY-NaD1 uptake at 30 °C or 4 °C. It is filed as cell-based, Candida albicans. The note with it: 0, 5 or 10 µM BODIPY-NaD1, 30 min, half-strength PDB, three biological replicates. As for the experimental part:
(§1) C. albicans DAY185 overnight cultures were diluted in half-strength potato dextrose broth (PDB) to an OD600 of 0.2 and grown for 3 h (30 °C, 250 rpm) before they were diluted again to an OD600 of 0.1 with half-strength PDB and used in cell death and NaD1 uptake assays. Cell death assays were conducted by treating 300 µL of C. albicans cells with 0, 5, 10 or 20 µM of native NaD1 or LL-37 and 5 µM PI. NaD1 uptake at 4 °C was measured by treating 300 µL of cells with 0, 5 or 10 µM BODIPY-labelled NaD1. All treatments were conducted for 30 min at either 30 °C or 4 °C without shaking and in the dark. […] For BODIPY-labelled NaD1, cells were excited at 488 nm and emission was detected using a 530/30 filter. For PI, cells were excited at 488 nm and emission was detected using a 670LP filter. Data were analysed using Weasel v3.0 (Walter and Eliza Hall Institute, Parkville, Australia).
(§2) Figure 2 NaD1 induced cell death and uptake is reduced at 4 °C. […] PI (5 µM) was added for quantitation of cell death. Cells with PI fluorescence were counted using a flow cytometer to separate living and dead cells at both 30 °C (grey shading) and 4 °C (black line). Data is a representative example from three independent experiments; (Aii) The percentage of PI positive cells (percent cell death) relative to total cell counts was also calculated for three biological replicates and is shown in a bar graph. […]

The subject of experiment [2] is C. albicans DAY185. Put plainly: Confocal microscopy of BODIPY-NaD1 uptake after CCCP or latrunculin A pre-treatment (cell counts). The format is cell-based, Candida albicans. The note with it: 0 µM CCCP (no-inhibitor control), 10 µM BODIPY-NaD1 for 10 min, n = 4. The protocol: C. albicans DAY185 overnight cultures were diluted in half-strength potato dextrose broth (PDB; Becton Dickinson, Scoresby, Australia) to an OD600 of 0.2 and grown for a further three hours (30 °C, 250 rpm). Cells were then diluted to an OD600 of 0.3 with half-strength PDB. For time course experiments, 300 µL aliquots (in 1.5 mL microcentrifuge tubes) were pre-treated with 5 µM propidium iodide (PI; Sigma, St Louis, MO, USA) for 10 min prior to addition of BODIPY- labelled NaD1. For CCCP and latrunculin A experiments, yeast cells were pre-treated with 50 µM CCCP (Sigma) or 100 µM latrunculin A (AdipoGen, Liestal, Switzerland) for 2 h (30 °C, 250 rpm) before addition of 5 µM PI. BODIPY-NaD1 (10 µM) was then added and cells were monitored using a Zeiss LSM510/ConfoCor confocal with images taken every 5 sec. BODIPY was excited at 488 nm (Argon laser) and emission was detected at 505 to 530 nm. PI was excited at 561 nm (DPSS laser) and fluorescence was monitored at 575 to 615 nm. Images were captured using Zen2009 (Zeiss, Oberkochen, Germany) software and analysed using FIJI (Bethesda, Rockville, MD, USA). Brightness and contrast for Figure 1, Figure 3 and Figure 4 were adjusted using the auto-brightness/contrast function of FIJI.
Figure 3 NaD1 uptake is reduced after treatment with CCCP. […]

The subject of the next experiment is C. albicans DAY286 (WT). As to the kind of experiment: Fungal growth inhibition assay, ESCRT wild type. The format is cell-based, Candida albicans. The following applies: half-strength PDB, 30 °C, 24 h, absorbance 595 nm, IC50 ± standard deviation, n = 4. The text has this:
(§3) All C. albicans strains were obtained from the fungal genetic stock centre and are described in [26, 27, 28]. Strains were derived from the BWP17 background strain (ura3::imm434/ura3::imm434 iro1/iro1::imm434 his1::hisG/his1::hisG arg4/arg4). The DAY185 wild-type C. albicans strain (ARG4+, URA3+, HIS1+) was used in most assays. For testing of C. albicans ESCRT mutants, DAY286 (ARG4+, URA3+, his1-) was used as the wild-type strain. C. albicans ESCRT (ARG4+, URA3+, his1-) mutants were produced by transposon insertion. Strains were grown in yeast extract-peptone dextrose (YPD) at 30 °C with shaking (250 rpm). For C. albicans mutant strains, YPD was supplemented with 80 µg/mL uridine.
Fungal growth inhibition assays were performed essentially as described in [30]. Overnight cultures of C. albicans cells were diluted to 5000 cells/mL with half-strength PDB. For growth inhibition assays in the presence of latrunculin A, 80 µL of diluted C. albicans DAY185 cells were added to 10 µL of latrunculin A and 10 µL of NaD1 in a 96 well microtiter plate (Greiner, Kremsmünster, Austria) to final concentrations of 2.5, 3, 4 and 4.5 µM NaD1 and 0 or 20 μM latrunculin A (AdipoGen). […] Growth of cells was monitored by measuring absorbance at 595 nm in a SpectraMAX M5e plate reader (Molecular Devices, San Jose, CA, USA). […]

Experiment [3] has as its system C. albicans DAY185. As to the kind of experiment: Fungal growth inhibition assay. The format is cell-based, Candida albicans. The following applies: half-strength PDB, 30 °C, 24 h, absorbance 595 nm, n = 3. The protocol:
(§4) Fungal growth inhibition assays were performed essentially as described in [30]. Overnight cultures of C. albicans cells were diluted to 5000 cells/mL with half-strength PDB. For growth inhibition assays in the presence of latrunculin A, 80 µL of diluted C. albicans DAY185 cells were added to 10 µL of latrunculin A and 10 µL of NaD1 in a 96 well microtiter plate (Greiner, Kremsmünster, Austria) to final concentrations of 2.5, 3, 4 and 4.5 µM NaD1 and 0 or 20 μM latrunculin A (AdipoGen). For brefeldin A and nocodazole assays, 80 µL of diluted C. albicans DAY185 cells was added to 10 µL of inhibitor and 10 µL of NaD1 in a microtiter plate. Brefeldin A (Sigma) and nocodazole where serially diluted (two-fold) down the plate with top final concentrations of 40 µM and 20 µM respectively. NaD1 was added to all wells at a final concentration of 2.5 µM. No-inhibitor controls were also included. For testing the antifungal activity of NaD1 against the C. albicans ESCRT mutants, 80 µL of diluted cells (DAY286 wild type and mutants) were added to 20 µL of NaD1 serially diluted from a top final concentration of 10 µM. All plates were incubated at 30 °C overnight without shaking. Growth of cells was monitored by measuring absorbance at 595 nm in a SpectraMAX M5e plate reader (Molecular Devices, San Jose, CA, USA). Measurements were taken at t = 0 and t = 24 h.

Experiment [4] concerns C. albicans DAY185. The following applies: growth inhibition of C. albicans DAY185, previously reported; cited from earlier work.
The test system of experiment [5] is C. albicans DAY185. Put plainly: Flow cytometry cell death assay (PI positive cells) at 30 °C or 4 °C. The format is cell-based, Candida albicans. The note with it: 0, 5, 10 or 20 µM peptide, 5 µM PI, 30 min, half-strength PDB, three biological replicates. As for the experimental part: as §1, §2
The subject of a further experiment is C. albicans bro1Δ. Put plainly: Fungal growth inhibition assay, ESCRT mutant. The following applies: half-strength PDB, 30 °C, 24 h, absorbance 595 nm, IC50 ± standard deviation, n = 4. The format is cell-based, Candida albicans.
Excerpt: as §3, §4

For the next experiment, the system named is C. albicans vps36Δ. Put plainly: Fungal growth inhibition assay, ESCRT mutant. It is filed as cell-based, Candida albicans. The following applies: half-strength PDB, 30 °C, 24 h, absorbance 595 nm, IC50 ± standard deviation, n = 4.
Excerpt: as §3, §4

Another experiment concerns C. albicans vps28Δ. Put plainly: Fungal growth inhibition assay, ESCRT mutant. The format is cell-based, Candida albicans. The following applies: half-strength PDB, 30 °C, 24 h, absorbance 595 nm, IC50 ± standard deviation, n = 4.
Excerpt: as §3, §4

A further experiment concerns C. albicans vps24Δ. As to the kind of experiment: Fungal growth inhibition assay, ESCRT mutant. The format is cell-based, Candida albicans. The following applies: half-strength PDB, 30 °C, 24 h, absorbance 595 nm, IC50 ± standard deviation, n = 4.
Excerpt: as §3, §4

The subject of the next experiment is C. albicans vps23Δ. Put plainly: Fungal growth inhibition assay, ESCRT mutant. It is filed as cell-based, Candida albicans. The following applies: half-strength PDB, 30 °C, 24 h, absorbance 595 nm, IC50 ± standard deviation, n = 4.
Excerpt: as §3, §4

The test system of another experiment is C. albicans vps2Δ. Put plainly: Fungal growth inhibition assay, ESCRT mutant. It is filed as cell-based, Candida albicans. The note with it: half-strength PDB, 30 °C, 24 h, absorbance 595 nm, IC50 ± standard deviation, n = 4.
Excerpt: as §3, §4

A further experiment concerns C. albicans snf7Δ. As to the kind of experiment: Fungal growth inhibition assay, ESCRT mutant. The note with it: half-strength PDB, 30 °C, 24 h, absorbance 595 nm, IC50 ± standard deviation, n = 4. It is filed as cell-based, Candida albicans.
Excerpt: as §3, §4

Where no end group is shown, it is not given here.

For “BODIPY-NaD1: NaD1 fluorescently labelled with BODIPY-FL-EDA (RECKTESNTFPGICITKPPCRKACISEKFTDGHCSKILRRCLCTKPC; BODIPY-FL-EDA label; UniProt Q8GTM0 26-72, looked up)”, in the experiment with C. albicans DAY185 [1], the “cells containing BODIPY-labelled NaD1 in the cytoplasm at 4 °C compared to 30 °C” value was “Fewer cells”. Moreover, the “cells with BODIPY-labelled NaD1 accumulated on the cell surface, relative to total cell counts” value in the experiment on C. albicans DAY185 [2] is “about 21%”.

In the case of “NaD1: plant defensin from ornamental tobacco, purified from the flowers of Nicotiana alata (RECKTESNTFPGICITKPPCRKACISEKFTDGHCSKILRRCLCTKPC; ends and bridges not checked; cysteine pairing not given here; UniProt Q8GTM0 26-72, looked up)”, the IC50 in the experiment with C. albicans DAY286 (WT) is 1800 ± 490 nM; in the experiment on C. albicans DAY185 [4], 2300 ± 600 nM; in the experiment with C. albicans bro1Δ, 2100 ± 350 nM; with C. albicans vps36Δ, 1700 ± 280 nM; in the experiment with C. albicans vps28Δ it was 1600 ± 330 nM; with C. albicans vps24Δ it was 2100 ± 330 nM. For the same substance, the IC50 was found to be 1800 ± 430 nM with C. albicans vps23Δ, 1800 ± 400 nM with C. albicans vps2Δ and 1900 ± 450 nM in the experiment with C. albicans snf7Δ. The “growth of cells with NaD1 plus brefeldin A versus NaD1 only” value with C. albicans DAY185 [3] (2.5 µM NaD1 with 20 µM brefeldin A) is reported as “No significant difference”. The “growth inhibition by NaD1 in the presence of latrunculin A” value in the experiment on C. albicans DAY185 [3] (2.5 µM NaD1 with 20 µM latrunculin A, 5000 cells/mL) is “reduced”. Besides, the “growth of cells with NaD1 plus nocodazole versus NaD1 only” value in the experiment on C. albicans DAY185 [3] (2.5 µM NaD1 with 20 µM nocodazole) is recorded as “No significant difference”. In addition, in the experiment with C. albicans DAY185 [3] (4 µM NaD1 with 20 µM latrunculin A, 5000 cells/mL), the “protection of cells from NaD1 by latrunculin A” value is “did not protect”. In the experiment with C. albicans DAY185 [5], the “cell death (PI positive cells) at 4 °C compared to 30 °C” value is on record as “less cell death”.
